Data taken from patent publication US20050143433A1, “Substituted heterocycles useful for treating HCV infection” (priority 2003, published 2005).

System: HCV replicon (5-2 Luc replicon-comprising cells)
Assay: HCV replicon luciferase emission assay
Format: cell-based
Settings: Hepatitis C virus; 5-2 Luc replicon cells, 24 hours with compound, 50% reduction in luciferase emission
From the text: The inhibitory activity of certain exemplary compounds of the invention was confirmed using an HCV replicon assay. The HCV replicon can include such features as the HCV 5′ untranslated region including the HCV IRES, the HCV 3′ untranslated region, selected HCV genes encoding HCV polypeptides, selectable markers, and a reporter gene such as luciferase, GFP, etc. In the assay, actively dividing 5-2 Luc replicon-comprising cells (obtained from Rolf Bartenschlager; see Lohmann et al., 1999, Science 285:110-113) were seeded at a density of between about 5,000 and 7,500 cells/well onto 96 well plates (about 90 μl of cells per well) and incubated at 37° C. and 5% CO2 for 24 hours. Then, the test compound (in a volume of about 10 μl) was added to the wells at various concentrations and the cells were incubated for an additional 24 hours before luciferase assay. The media was aspirated from each well and Bright-Glo (Promega, Madison, Wis.) luciferase assay reagents were added to each well according to the manufacturer's instructions. Briefly, the Bright-Glo reagent was diluted 1:1 with PBS and 100 μl of diluted reagent was added to each well. After 5 min of incubation at room temperature, luciferin emission was quantified with a luminometer. In this assay, the amount of test compound that yielded a 50% reduction in luciferase emission (IC50) was determined.

Structure (SMILES): O=C1c2ccccc2-c2onc3ccc(N4CC4)c1c23 [Compound 2]
- IC50: 800 nM
